This is an account of results in patent US11919897B2, “Inhibitors of human immunodeficiency virus replication” (VIIV HEALTHCARE UK (No. 5) LIMITED, priority 2018, dated 2024).

In general, EC50 refers to the concentration giving half of the maximal effect. The CC50 is the concentration giving 50% cytotoxicity. A low value points to greater toxicity to the cells.

Where two headings read alike, the source gives them in different places.

Holding throughout (format): cell-based
Data set [1] deals with recombinant NL4-3 virus (nef section replaced with Renilla luciferase gene) in MT-2 cells. Nature of the data set: HIV cell culture assay (antiviral activity, luciferase readout in infected MT-2 cells). The protocol: HIV cell culture assay-MT-2 cells, 293T cells and the proviral DNA clone of NL4-3 virus were obtained from the NIH AIDS Research and Reference Reagent Program. MT-2 cells were propagated in RPMI 1640 media supplemented with 10% heat inactivated fetal bovine serum (FBS), 100 μg/ml penicillin G and up to 100 units/mL streptomycin. The 293T cells were propagated in DMEM media supplemented with 10% heat inactivated FBS, 100 μg/mL penicillin G and 100 μg/mL streptomycin. A recombinant NL4-3 proviral clone, in which a section of the nef gene was replaced with the Renilla luciferase gene, was used to make the reference virus used in these studies. The recombinant virus was prepared through transfection of the recombinant NL4-3 proviral clone into 293T cells using Transit-293 Transfection Reagent from Minis Bio LLC (Madison, WI). Supernatent was harvested after 2-3 days and the amount of virus present was titered in MT-2 cells using luciferase enzyme activity as a marker by measuring luciferase enzyme activity. Luciferase was quantitated using the EnduRen Live Cell Substrate from Promega (Madison, WI). Antiviral activities of compounds toward the recombinant virus were quantified by measuring luciferase activity in MT-2 cells infected for 4-5 days with the recombinant virus in the presence of serial dilutions of the compound.
The 50% effective concentration (EC50) was calculated by using the exponential form of the median effect equation where (Fa)=1/[1+(ED50/drug conc.)m] (Johnson V A, Byington R T. Infectivity Assay. In Techniques in HIV Research. ed. Aldovini A, Walker B D. 71-76. New York: Stockton Press. 1990).

Data set [2] can be described thus: Compound cytotoxicity, XTT-based colorimetric assay. The conditions noted are these: human; uninfected MT2 cells, day 4, XTT assay. As to the method: (§1) Compound cytotoxicity and the corresponding CC50 values were determined using the same protocol as described in the antiviral assay except that uninfected cells were used. Cytotoxicity was assessed on day 4 in uninfected MT2 cells by using an XTT (2,3-bis[2-Methoxy-4-nitro-5-sulfophenyl]-2H-tetrazolium-5-carboxyanilide inner salt)-based colorimetric assay (Sigma-Aldrich, St Louis, Mo.).
On the technique in general: Tetrazolium assays rely on reduction of a dye to a coloured formazan, in cell work by metabolically active cells.

The test system of another data set is uninfected MT2 cells. The description is as above. The conditions noted are these: day 4, XTT assay. As to the method:
as §1

[3] abbreviates: MT-2 cells infected for 4-5 days with recombinant NL4-3 Renilla luciferase virus, luciferase activity, read-out: EC50.

With `Cn1nc(NS(C)(=O)=O)c2c(Cl)ccc(-n3c([C@H](Cc4cc(F)cc(F)c4)NC(=O)Cn4nc(C(F)F)c5c4C(F)(F)[C@@H]4C[C@H]54)nc4nc(OCCC5CC5)ccc4c3=O)c21` (atropisomer, axis not shown; (P)) [Example 24, N—((S)-1-((3P)-3-(4-chloro-1-methyl-3-(methylsulfonamido)-1H-indazol-7-yl)-7-(2-cyclopropylethoxy)-4-oxo-3,4-dihydropyrido[2,3-d]pyrimidin-2-yl)-2-(3,5-difluorophenyl)ethyl)-2-((3bS,4aR)-3-(difluoromethyl)-5,5-difluoro-3b,4,4a,5-tetrahydro-1H-cyclopropa[3,4]cyclopenta[1,2-c]pyrazol-1-yl)acetamide], the EC50 in data set [1] (Renilla, NL43) is 0.051 nM. Also, the CC50 at 4 days in data set [2] was more than 500 nM.
Take `Cn1nc(NS(C)(=O)=O)c2c(Cl)ccc(-n3c([C@H](Cc4cc(F)cc(F)c4)NC(=O)Cn4nc(C(F)F)c5c4C(F)(F)[C@@H]4C[C@H]54)nc4nc(OCCN5CCS(=O)(=O)CC5)ccc4c3=O)c21` (atropisomer, axis not shown; (P)) [Example 7, N—((S)-1-((3P)-3-(4-chloro-1-methyl-3-(methylsulfonamido)-1H-indazol-7-yl)-7-(2-(1,1-dioxidothiomorpholino)ethoxy)-4-oxo-3,4-dihydropyrido[2,3-d]pyrimidin-2-yl)-2-(3,5-difluorophenyl)ethyl)-2-((3bS,4aR)-3-(difluoromethyl)-5,5-difluoro-3b,4,4a,5-tetrahydro-1H-cyclopropa[3,4]cyclopenta[1,2-c]pyrazol-1-yl)acetamide]: in data set [1] (Renilla, NL43), the EC50 was 0.26 nM. For the same compound, the CC50 at 4 days in data set [2] is more than 1000 nM.
For the compound `Cn1nc(NS(C)(=O)=O)c2c(Cl)ccc(-n3c([C@H](Cc4cc(F)cc(F)c4)NC(=O)Cn4nc(C(F)F)c5c4C(F)(F)[C@@H]4C[C@H]54)nc4nc(OCCOC5CC5)ccc4c3=O)c21` (atropisomer, axis not shown; (P)) [Example 29, N—((S)-1-((3P)-3-(4-chloro-1-methyl-3-(methylsulfonamido)-1H-indazol-7-yl)-7-(2-cyclopropoxyethoxy)-4-oxo-3,4-dihydropyrido[2,3-d]pyrimidin-2-yl)-2-(3,5-difluorophenyl)ethyl)-2-((3bS,4aR)-3-(difluoromethyl)-5,5-difluoro-3b,4,4a,5-tetrahydro-1H-cyclopropa[3,4]cyclopenta[1,2-c]pyrazol-1-yl)acetamide], the EC50 in data set [1] (Renilla, NL43) amounted to 0.034 nM. The compound also came in with a CC50 at 4 days in data set [2] of more than 100 nM.
On the same counts, the results for `Cn1nc(NS(C)(=O)=O)c2c(Cl)ccc(-n3c([C@H](Cc4cc(F)cc(F)c4)NC(=O)Cn4nc(C(F)F)c5c4C(F)(F)[C@@H]4C[C@H]54)nc4nc(OCCN5CCCCC5)ccc4c3=O)c21` (atropisomer, axis not shown; (P)) [Example 11, N—((S)-1-((3P)-3-(4-chloro-1-methyl-3-(methylsulfonamido)-1H-indazol-7-yl)-4-oxo-7-(2-(piperidin-1-yl)ethoxy)-3,4-dihydropyrido[2,3-d]pyrimidin-2-yl)-2-(3,5-difluorophenyl)ethyl)-2-((3bS,4aR)-3-(difluoromethyl)-5,5-difluoro-3b,4,4a,5-tetrahydro-1H-cyclopropa[3,4]cyclopenta[1,2-c]pyrazol-1-yl)acetamide] are 0.49 nM and more than 1000 nM.
Consider `Cn1nc(NS(C)(=O)=O)c2c(Cl)ccc(-n3c([C@H](Cc4cc(F)cc(F)c4)NC(=O)Cn4nc(C(F)F)c5c4C(F)(F)[C@@H]4C[C@H]54)nc4nc(OCc5ccccn5)ccc4c3=O)c21` (atropisomer, axis not shown; (P)) [Example 30, N—((S)-1-((3P)-3-(4-chloro-1-methyl-3-(methylsulfonamido)-1H-indazol-7-yl)-4-oxo-7-(pyridin-2-ylmethoxy)-3,4-dihydropyrido[2,3-d]pyrimidin-2-yl)-2-(3,5-difluorophenyl)ethyl)-2-((3bS,4aR)-3-(difluoromethyl)-5,5-difluoro-3b,4,4a,5-tetrahydro-1H-cyclopropa[3,4]cyclopenta[1,2-c]pyrazol-1-yl)acetamide], for which the EC50 in data set [1] (Renilla, NL43) came out at 0.043 nM. The CC50 at 4 days in data set [2] is more than 100 nM.
Regarding “N—((S)-1-((3P)-3-(4-chloro-1-(2,2-difluoroethyl)-3-(methylsulfonamido)-1H-indazol-7-yl)-7-(2-cyclopropylethoxy)-4-oxo-3,4-dihydropyrido[2,3-d]pyrimidin-2-yl)-2-(3,5-difluorophenyl)ethyl)-2-((3bS,4aR)-3-(difluoromethyl)-5,5-difluoro-3b,4,4a,5-tetrahydro-1H-cyclopropa[3,4]cyclopenta[1,2-c]pyrazol-1-yl)acetamide [Example 22]”, in data set [1] (setting [3]), the EC50 was found to be 0.29 nM. The CC50 in the data set with uninfected MT2 cells was more than 500 nM.
Regarding `Cn1nc(NS(C)(=O)=O)c2c(Cl)ccc(-n3c([C@H](Cc4cc(F)cc(F)c4)NC(=O)Cn4nc(C(F)F)c5c4C(F)(F)[C@@H]4C[C@H]54)nc4nc(OCCCS(C)(=O)=O)ccc4c3=O)c21` (atropisomer, axis not shown; (P)) [Example 20, N—((S)-1-((3P)-3-(4-chloro-1-methyl-3-(methylsulfonamido)-1H-indazol-7-yl)-7-(3-(methylsulfonyl)propoxy)-4-oxo-3,4-dihydropyrido[2,3-d]pyrimidin-2-yl)-2-(3,5-difluorophenyl)ethyl)-2-((3bS,4aR)-3-(difluoromethyl)-5,5-difluoro-3b,4,4a,5-tetrahydro-1H-cyclopropa[3,4]cyclopenta[1,2-c]pyrazol-1-yl)acetamide], in data set [1] (Renilla, NL43), the EC50 stood at 0.18 nM. Moreover, the CC50 at 4 days in data set [2] is more than 500 nM.
On the same counts, the results for `CC(C)OCCOc1ccc2c(=O)n(-c3ccc(Cl)c4c(NS(C)(=O)=O)nn(C)c34)c([C@H](Cc3cc(F)cc(F)c3)NC(=O)Cn3nc(C(F)F)c4c3C(F)(F)[C@@H]3C[C@H]43)nc2n1` (atropisomer, axis not shown; (P)) [Example 4, N—((S)-1-((3P)-3-(4-chloro-1-methyl-3-(methylsulfonamido)-1H-indazol-7-yl)-7-(2-isopropoxyethoxy)-4-oxo-3,4-dihydropyrido[2,3-d]pyrimidin-2-yl)-2-(3,5-difluorophenyl)ethyl)-2-((3bS,4aR)-3-(difluoromethyl)-5,5-difluoro-3b,4,4a,5-tetrahydro-1H-cyclopropa[3,4]cyclopenta[1,2-c]pyrazol-1-yl)acetamide] are less than 0.05 nM and more than 1000 nM.
For the compound “N—((S)-1-((3P)-3-(4-chloro-1-methyl-3-(methylsulfonamido)-1H-indazol-7-yl)-4-oxo-7-(pyrimidin-2-ylmethoxy)-3,4-dihydropyrido[2,3-d]pyrimidin-2-yl)-2-(3,5-difluorophenyl)ethyl)-2-((3bS,4aR)-3-(difluoromethyl)-5,5-difluoro-3b,4,4a,5-tetrahydro-1H-cyclopropa[3,4]cyclopenta[1,2-c]pyrazol-1-yl)acetamide [Example 9]”, the concentration giving a half-maximal response (EC50) in data set [1] (setting [3]) came to 0.03 nM. In addition, the CC50 in the data set with uninfected MT2 cells is more than 1000 nM.
With `CC(C)COCCOc1ccc2c(=O)n(-c3ccc(Cl)c4c(NS(C)(=O)=O)nn(C)c34)c([C@H](Cc3cc(F)cc(F)c3)NC(=O)Cn3nc(C(F)F)c4c3C(F)(F)[C@@H]3C[C@H]43)nc2n1` (atropisomer, axis not shown; (P)) [Example 25, N—((S)-1-((3P)-3-(4-chloro-1-methyl-3-(methylsulfonamido)-1H-indazol-7-yl)-7-(2-isobutoxyethoxy)-4-oxo-3,4-dihydropyrido[2,3-d]pyrimidin-2-yl)-2-(3,5-difluorophenyl)ethyl)-2-((3bS,4aR)-3-(difluoromethyl)-5,5-difluoro-3b,4,4a,5-tetrahydro-1H-cyclopropa[3,4]cyclopenta[1,2-c]pyrazol-1-yl)acetamide], the EC50 in data set [1] (Renilla, NL43) worked out at 0.054 nM. In data set [2], the CC50 at 4 days was more than 100 nM.
On the same counts, the results for `CO[C@H](C)COc1ccc2c(=O)n(-c3ccc(Cl)c4c(NS(C)(=O)=O)nn(C)c34)c([C@H](Cc3cc(F)cc(F)c3)NC(=O)Cn3nc(C(F)F)c4c3C(F)(F)[C@@H]3C[C@H]43)nc2n1` [Example 31, N—((S)-1-((3P)-3-(4-chloro-1-methyl-3-(methylsulfonamido)-1H-indazol-7-yl)-7-((R)-2-methoxypropoxy)-4-oxo-3,4-dihydropyrido[2,3-d]pyrimidin-2-yl)-2-(3,5-difluorophenyl)ethyl)-2-((3bS,4aR)-3-(difluoromethyl)-5,5-difluoro-3b,4,4a,5-tetrahydro-1H-cyclopropa[3,4]cyclopenta[1,2-c]pyrazol-1-yl)acetamide] are 0.019 nM and more than 100 nM.
